The text below walks through data of patent US10632209B2, “ASH1L inhibitors and methods of treatment therewith” (The Regents of the University of Michigan, priority 2017, dated 2020).

In one series the test system is MOLM13. The series can be described thus: MTT cell viability assay, MOLM13. The conditions noted are these: MOLM13, 14 days of treatment. The series is classed as cell-based, Human. Here is the method: (§1) Human leukemia cells were plated at 1×10^5 cells/ml in 24-well plates, treated with 0.25% DMSO or compounds and cultured at 37° C. for 7-14 days. Every four days, the volume corresponding to 1×10^5 cells of DMSO-treated cells was spun down and resuspended in fresh media with fresh compound. At day 0 and each four day interval, 100 μl aliquots of the cell suspension were transferred to 96-well plates in quadruplicates. The quadruplicate samples were incubated for 4 days at 37° C., and then an MTT cell proliferation assay kit (Roche) was used to measure viable cells. Absorbance was read at 570 nm using a PHERAstar (BMG) microplate reader.
(Tetrazolium assays rely on reduction of a dye to a coloured formazan, in cell work by metabolically active cells.)

The next series concerns KOPN8. The series can be described thus: MTT cell viability assay, KOPN8. The series is classed as cell-based, Human. The conditions noted are these: KOPN8, 14 days of treatment. Here is the method:
as §1

The next series deals with MV4;11. Briefly: MTT cell viability assay, MV4;11. The series is classed as cell-based, Human. The conditions noted are these: MV4;11, 14 days of treatment. The procedure:
as §1

The next series has as its system SEM cells. The series can be described thus: MTT cell viability assay, SEM. In kind it is cell-based, Human. The conditions noted are these: 14 days of treatment. Here is the method:
as §1

Another series concerns K562 (CML cell line). The series can be described thus: MTT cell viability assay, K562 control cell line. The conditions noted are these: 14 days of treatment. In kind it is cell-based, Human. The procedure: as §1
A further series deals with MV4;11 cells. The series can be described thus: Differentiation of MV4;11 cells (Cytospin/Wright-Giemsa staining). The series is classed as cell-based, Human. The conditions noted are these: 7 days of treatment. The procedure: Cytospin/Wrigtht-Giemsa Staining
1×10^5 of MV4;11 cells treated with compounds or DMSO were harvested and placed in a Shandon EZ Single Cytofunnel (Thermo Fisher). Samples were centrifuged at 600 rpm for 5 min. The slides were air dried before staining with a Hema-3 kit (Thermo Fisher).

The test system of series [1] is MLL fusion target genes (HOXA genes, MEIS1, MEF2C), MNDA. Briefly: Quantitative RT-PCR of MLL fusion target genes and MNDA. The series is classed as cell-based. The conditions noted are these: dose-dependent manner. Here is the method: Total RNA was extracted from cells using the RNeasy mini kit (QIAGEN), and then 100-2000 ng of total RNA was reverse transcribed using the High Capacity cDNA Reverse Transcription Kit (Applied Biosystems) according to the manufacturer's protocol. Real-time PCR was performed using a CFX96 Real-Time PCR Detection System (Biorad). TaqMan Gene Expression Master Mix and TaqMan Gene Expression Assays were purchased from Thermo Fisher. Relative quantification of each gene transcript was carried out using the ΔΔCt method as described in the Biorad Real-Time PCR Applications Guide.

The test system of series [2] is normal human hematopoietic hCD34+ cells. The series can be described thus: Toxicity to normal hematopoietic hCD34+ cells. In kind it is cell-based.
The test system of series [3] is MV4;11 xenotransplantation mouse models of MLL leukemia. The series can be described thus: MV4;11 xenotransplantation mouse model of MLL leukemia. The series is classed as in vivo, mice. Conditions: i.p. The procedure:
Immunocompromised 8-10 week-old female NSG mice were used for in vivo efficacy studies in accordance with IACUC guidelines. Luciferase expressing human MV4;11 leukemia cells (MV4;11-luc) were engrafted intravenously via tail vein injection (1×10^7 cells/animal). Five days after transplantation mice were randomly assigned to a vehicle control or a compound treatment group (6-7 animals per group). […] Body weight was measured daily, while mean luminescence signal was measured at days 6, 13 and 19 post-transplantation in all mice. […]

Series [4] deals with T1, ASH1L SET-BAH construct (amino acids 2069-2833) (Homo sapiens, UniProt Q9NR48).
T1 construct: ASH1L SET-BAH construct (amino acids 2069-2833); His tag (implied only by nickel-NTA purification); made in house; host or cells: E. coli BL21(DE3) T1R
Briefly: ASH1L histone methyltransferase (HMT) assay. The series is classed as biochemical. Conditions: read-out: IC50 value measured in histone methyltransferase (HMT) assay. The procedure:
ASH1L SET protein was expressed as MOCR fusion proteins in E. coli BL21(DE3) T1R cells at 22° C. Transformed cells were lysed in buffer A containing 50 mM Tris (pH 7.5), 500 mM NaCl, 1 mM tris(2-carboxyethyl)phosphine (TCEP), and 20 mM imidazole. Cell debris was pelleted by centrifugation, and the supernatant was loaded on a column packed with nickel-nitrilotriacetic acid beads. The column was washed with buffer A and protein eluted with a 100 mL linear gradient up to buffer A containing 500 mM imidazole. The MOCR tag was cleaved with tobacco etch virus (TEV) protease during overnight dialysis against 50 mM Tris (pH 7.5), 100 mM NaCl, and 1 mM TCEP. Cleaved ASH1L was isolated from MOCR by repeating the nickel column purification and collecting ASH1L in the flow-through and low-imidazole fractions. ASH1L was further purified by gel filtration chromatography using a Superdex-75 column running in buffer B containing 50 mM Tris (pH 7.5), 100 mM NaCl, and 1 mM TCEP. ASH1L SET-PHD and SET-BAH proteins were purified similarly, with the following differences. […]
Chicken mono/dinucleosomes (HMT-35-179), chicken oligo nucleosomes (HMT-35-177), and HeLa nucleosomes (HMT-35-123) were purchased from Reaction Biology. […] The P81 squares were then dried for 1 h, added to 10 mL of Ultima Gold scintillation cocktail (PerkinElmer), and analyzed using a Beckman scintillation counter.

As a reminder, the IC50 is the concentration at which inhibition is half-maximal.

Turning to `CC(C)S(=O)(=O)N1CCC(n2cc(-c3cccc(C(N)=S)c3)c3ccc(CNc4nnc(N)s4)cc32)CC1` [Compound 34], the “growth inhibition / proliferation, MTT assay” value in the series with MOLM13 and in the series on KOPN8 was “inhibits proliferation” in each case. Moreover, the “proliferation, MTT cell viability assay” value is on record as “inhibits proliferation” with MV4;11, “inhibits proliferation” in the series on SEM cells and “but not control cell line K562” with K562 (CML cell line).

As to `CC1CN(S(C)(=O)=O)CCC1n1cc(-c2cccc(C(N)=S)c2)c2ccc(N)cc21` (centres unmarked) [Compound 22], the “growth inhibition / proliferation, MTT assay” value with MOLM13 and in the series on KOPN8 was “growth inhibition” in each case. Besides, the “differentiation in MV4;11 cells” value with MV4;11 cells is listed as “induces differentiation”. Further, the “expression level of MNDA differentiation marker” value in [1] is recorded as “increase the expression level”. The “expression of MLL fusion target genes (HOXA genes, MEIS1, MEF2C)” value in series [1] is recorded as “downregulates expression”. In addition, the “toxicity to normal human hematopoietic hCD34+ cells” value in series [2] is on record as “not toxic”.

For `Cl.NC(=S)c1cccc(-c2cn(C3CCN(S(=O)(=O)C(F)(F)F)CC3)c3cc(CNC(=O)C4CNC4)ccc23)c1` [Compound 59, N-((3-(3-carbamothioylphenyl)-1-(1-((trifluoromethyl)sulfonyl)piperidin-4-yl)-1H-indol-6-yl)methyl)azetidine-3-carboxamide hydrochloride salt], the “leukemia progression, bioluminescence level in mice” value in series [3] (7 days of treatment, 40 mg/kg, q.d.) is recorded as “slows down leukemia progression”. The “leukemia progression, flow cytometry of hCD45+ cells in spleen” value in [3] (21 days of treatment, 25 mg/kg, b.i.d.) is recorded as “inhibits leukemia progression”.

On to `COCCC(=O)Nc1ccc2c(-c3cccc(C(N)=S)c3)cn(C3CCN(S(C)(=O)=O)CC3)c2c1` [Compound 37], for which, in [4], the half-inhibitory concentration (IC50) was found to be 750 nM.
